Assay results published in patent publication US20250289814A1, “COMPOUNDS AS PARP1 INHIBITIORS” (NINGBO NEWBAY TECHNOLOGY DEVELOPMENT CO., LTD., priority 2022, published 2025).
Where two headings read alike, the source gives them in different places.

What was measured:
DLD1-BRCA2−/− cells = assay: Cell proliferation assay in DLD1-BRCA2−/− cell lines (CellTiter-Glo, 7 days); format: cell-based
Experimental: BRCA2 (−/−) cells cultured in RPMI 1640+10% FBS were harvested and diluted to a density of 1×10^4 cells/mL and 2×10^4 cells/mL, respectively. Cells (40 μL/well) were seeded into 384-well cell culture plates. Plates were covered and incubated at 37° C., 5% CO2 overnight prior to the addition of test compounds or vehicle. The plates were then incubated at 37° C., 5% CO2 for 7 days. On day 8, the plates were removed from incubator and equilibrated at room temperature for 15 minutes. CellTiter-Glo (40 μL, at 1:1 to culture medium) is added into each well and the plates were placed at room temperature for 30 min. Luminescence was measured using an Envision plate reader. The resultant data were analysed as follows; where LC is culture medium without cells:
% inhibition values for different test compound concentrations were calculated and fitted to a four parameter logistic plot in order to determine the IC50 value using XLfit

[1] = Caco2 (A-B/B-A) permeability; format: in vitro ADME; conditions: human; for efflux ratio at 120 min, 5 μM: Caco-2, pH 7.4, PappB-A/PappA-B, read-out: Caco2 efflux ratio (ER); for Papp A→B at 120 min, 5 μM: Caco-2, pH 7.4, apical-to-basolateral, read-out: Caco2 A-B apparent permeability (Papp); for Papp A→B at 120 min, 5 μM / Papp B→A at 120 min, 5 μM: HBSS pH 7.4, 120 min, 37° C.; for Papp B→A at 120 min, 5 μM: Caco-2, pH 7.4, basolateral-to-apical, read-out: Caco2 B-A apparent permeability (Papp)
Experimental: The apical-to-basolateral (A-B) and basolateral-to-apical (B-A) transport of 5 μM test compounds in HBSS (10 mM HEPES, pH 7.4) was measured across Caco-2 cell monolayers (cells sourced from American Type Culture Collection, Manassas, Virgina). Duplicate incubations were performed at approximately 37° C. for 120 min, with functionality of the test system confirmed using 5 μM propranolol and digoxin as control compounds. Aliquots (50 μL) from both apical and basolateral wells were transferred into two fresh 96-well plates and quenched with acetonitrile solution containing analytical internal standards. Samples were vortexed mixed, centrifuged and a 100 μL aliquot of the resulting supernatant mixed with an equal volume of ultra-pure water prior to analysis by UPLC-MS/MS. The concentrations of test compound and control compounds in the incubation medium of donor and receiver compartments at the beginning and the end of the incubation period were used to calculate the apparent permeability (Papp) from A-B and B-A directions. The efflux ratio (ER) was expressed as PappB-A/PappA-B. The integrity of the cell monolayers after 2 hours incubation was confirmed using the marker reagent Lucifer yellow.

Row | IC50 (DLD1-BRCA2−/− cells; Homo sapiens, DLD-1, 168 h) | IC50 (DLD1-BRCA2−/− cells) | efflux ratio at 120 min, 5 μM [1] | Papp A→B at 120 min, 5 μM [1] | Papp B→A at 120 min, 5 μM [1] | SMILES
1 | > 1000 nM | – | – | – | – | CCc1cc2ncc(CN3CCCN(c4ccc(C(=O)NC)nc4)CC3)cc2[nH]c1=O [Compound 34, 5-(4-((7-ethyl-6-oxo-5,6-dihydro-1,5-naphthyridin-3-yl)methyl)-1,4-diazepan-1-yl)-N-methylpicolinamide]
2 | – | > 1000 nM | – | – | – | CCc1cc2ncc(CN3CC[C@@H](N(C)c4ccc(C(=O)NC)nc4)C3)cc2[nH]c1=O (single isomer, unassigned; enantiomer 1) [Compound 16, (enantiomer 1)-5-((1-((7-ethyl-6-oxo-5,6-dihydro-1,5-naphthyridin-3-yl)methyl)pyrrolidin-3-yl)(methyl)amino)-N-methylpicolinamide]
3 | – | > 1000 nM | – | – | – | CCc1cc2ncc(CN3CCC[C@@H](Oc4ccc(C(=O)NC)nc4)C3)cc2[nH]c1=O (single isomer, unassigned) [Compound 33, (enantiomer 1 or 2)-5-((1-((7-ethyl-6-oxo-5,6-dihydro-1,5-naphthyridin-3-yl)methyl)piperidin-3-yl)oxy)-N-methylpicolinamide]
4 | 356 nM | – | – | – | – | CCc1cc2ncc(CN3CC[C@@H](Oc4cnc(C(=O)NC)c(F)c4)C3)cc2[nH]c1=O [Compound 27, (R)-5-((1-((7-ethyl-6-oxo-5,6-dihydro-1,5-naphthyridin-3-yl)methyl)pyrrolidin-3-yl)oxy)-3-fluoro-N-methylpicolinamide]
5 | > 1000 nM | – | – | – | – | CCc1cc2ncc(CN3CC(Oc4ccc(C(=O)NC)nc4)C3C)cc2[nH]c1=O (centres unmarked) [Compound 18, 5-((1-((7-ethyl-6-oxo-5,6-dihydro-1,5-naphthyridin-3-yl)methyl)-2-methylazetidin-3-yl)oxy)-N-methylpicolinamide]
6 | – | 195 nM | 9.14 | 3.64 ×10⁻⁶ cm/s | 33.3 ×10⁻⁶ cm/s | CCc1cc2ncc(CN3CC[C@@H](N(C)c4ccc(C(=O)NC)nc4)C3)cc2[nH]c1=O (single isomer, unassigned; enantiomer 2) [Compound 17, (enantiomer 2)-5-((1-((7-ethyl-6-oxo-5,6-dihydro-1,5-naphthyridin-3-yl)methyl)pyrrolidin-3-yl)(methyl)amino)-N-methylpicolinamide]
7 | 215 nM | – | – | – | – | CNC(=O)c1ccc(O[C@@H]2CCN(Cc3cnc4cc(C)c(=O)[nH]c4c3)C2)cn1 [Compound 59, (R)-N-methyl-5-((1-((7-methyl-6-oxo-5,6-dihydro-1,5-naphthyridin-3-yl)methyl)pyrrolidin-3-yl)oxy)picolinamide]
8 | – | 192 nM | – | – | – | CCc1cc2ncc(CN3CC[C@@H](Cc4ccc(C(=O)NC)nc4)C3)cc2[nH]c1=O (single isomer, unassigned) [Compound 26, (enantiomer 1 or 2)-5-((1-((7-ethyl-6-oxo-5,6-dihydro-1,5-naphthyridin-3-yl)methyl)pyrrolidin-3-yl)methyl)-N-methylpicolinamide]
9 | > 1000 nM | – | 18.8 | 1.61 ×10⁻⁶ cm/s | 30.2 ×10⁻⁶ cm/s | CCc1cc2ncc(CN3CC4CC3CN4c3ccc(C(=O)NC)nc3)cc2[nH]c1=O (centres unmarked) [Compound 37, 5-(5-((7-ethyl-6-oxo-5,6-dihydro-1,5-naphthyridin-3-yl)methyl)-2,5-diazabicyclo [2.2.1]heptan-2-yl)-N-methylpicolinamide]
10 | 22.5 nM | – | 10.3 | 3.44 ×10⁻⁶ cm/s | 35.5 ×10⁻⁶ cm/s | CCc1cc2ncc([C@H](C)N3CC[C@@H](Oc4ccc(C(=O)NC)nc4)C3)cc2[nH]c1=O (single isomer, unassigned) [Compound 12, 5-(((R)-1-((enantiomer 1 or 2)-1-(7-ethyl-6-oxo-5,6-dihydro-1,5-naphthyridin-3-yl)ethyl)pyrrolidin-3-yl)oxy)-N-methylpicolinamide]
11 | > 1000 nM | – | 7.71 | 4.57 ×10⁻⁶ cm/s | 35.3 ×10⁻⁶ cm/s | CCc1cc2ncc(CN3CC4CCN(c5ccc(C(=O)NC)nc5)C4C3)cc2[nH]c1=O (centres unmarked) [Compound 42, 5-(5-((7-ethyl-6-oxo-5,6-dihydro-1,5-naphthyridin-3-yl)methyl)hexahydropyrrolo[3,4-b]pyrrol-1(2H)-yl)-N-methylpicolinamide]
12 | > 1000 nM | – | – | – | – | CNC(=O)c1ccc(N2CCCN(Cc3cnc4cc(C)c(=O)[nH]c4c3)CC2)cn1 [Compound 35, N-methyl-5-(4-((7-methyl-6-oxo-5,6-dihydro-1,5-naphthyridin-3-yl)methyl)-1,4-diazepan-1-yl) picolinamide]
13 | > 1000 nM | – | – | – | – | CCc1cc2ncc(CN3CC(Oc4ccc(C(=O)NC)nc4)C[C@@H]3C)cc2[nH]c1=O (single isomer, unassigned) [Compound 22, 5-(((enantiomer 1 or 2, 5S)-1-((7-ethyl-6-oxo-5,6-dihydro-1,5-naphthyridin-3-yl)methyl)-5-methylpyrrolidin-3-yl)oxy)-N-methylpicolinamide]
14 | 1.6 nM | – | 12.7 | 2.46 ×10⁻⁶ cm/s | 31.2 ×10⁻⁶ cm/s | CCc1cc2cnc(CN3CC[C@@H](Oc4ccc(C(=O)NC)nc4F)C3)cc2[nH]c1=O [Compound 62, (R)-5-((1-((3-ethyl-2-oxo-1,2-dihydro-1,6-naphthyridin-7-yl)methyl)pyrrolidin-3-yl)oxy)-6-fluoro-N-methylpicolinamide]
15 | – | > 1000 nM | – | – | – | CCc1cc2ncc(CN3CC(Oc4ccc(C(=O)NC)nc4)C[C@@H]3C)cc2[nH]c1=O (single isomer, unassigned) [Compound 23, 5-(((enantiomer 1 or 2, 5S)-1-((7-ethyl-6-oxo-5,6-dihydro-1,5-naphthyridin-3-yl)methyl)-5-methylpyrrolidin-3-yl)oxy)-N-methylpicolinamide]
16 | 300 nM | – | – | – | – | CCc1cc2ncc(CN3CC[C@@H](Cc4ccc(C(=O)NC)nc4)C3)cc2[nH]c1=O (single isomer, unassigned) [Compound 25, (enantiomer 1 or 2)-5-((1-((7-ethyl-6-oxo-5,6-dihydro-1,5-naphthyridin-3-yl)methyl)pyrrolidin-3-yl)methyl)-N-methylpicolinamide]
17 | > 1000 nM | – | – | – | – | CNC(=O)c1ccc(N2CC3CN(Cc4cnc5cc(C)c(=O)[nH]c5c4)CC3C2)cn1 (centres unmarked) [Compound 41, N-methyl-5-(5-((7-methyl-6-oxo-5,6-dihydro-1,5-naphthyridin-3-yl)methyl)hexahydropyrrolo[3,4-c]pyrrol-2(1H)-yl)picolinamide]
18 | > 1000 nM | – | – | – | – | CCc1cc2ncc(CN3CCC[C@@H](Oc4ccc(C(=O)NC)nc4)C3)cc2[nH]c1=O (single isomer, unassigned) [Compound 32, (enantiomer 1 or 2)-5-((1-((7-ethyl-6-oxo-5,6-dihydro-1,5-naphthyridin-3-yl)methyl)piperidin-3-yl)oxy)-N-methylpicolinamide]
19 | 181 nM | – | 8.32 | 4.29 ×10⁻⁶ cm/s | 35.7 ×10⁻⁶ cm/s | CCc1cc2ncc(CN3CC4CN(c5ccc(C(=O)NC)nc5)CC4C3)cc2[nH]c1=O (centres unmarked) [Compound 40, 5-(5-((7-ethyl-6-oxo-5,6-dihydro-1,5-naphthyridin-3-yl)methyl)hexahydropyrrolo [3,4-c]pyrrol-2(1H)-yl)-N-methylpicolinamide]

Row | SMILES | IC50 (DLD1-BRCA2−/− cells; Homo sapiens, DLD-1, 168 h) | IC50 (DLD1-BRCA2−/− cells) | efflux ratio at 120 min, 5 μM [1] | Papp A→B at 120 min, 5 μM [1] | Papp B→A at 120 min, 5 μM [1]
20 | CCc1cc2ncc(CN3C4CCC3CN(c3ccc(C(=O)NC)nc3)C4)cc2[nH]c1=O [Compound 38, 5-(8-((7-ethyl-6-oxo-5,6-dihydro-1,5-naphthyridin-3-yl)methyl)-3,8-diazabicyclo [3.2.1]octan-3-yl)-N-methylpicolinamide] | > 1000 nM | – | – | – | –
21 | CCc1cc2ncc(CN3C4CC3CN(c3ccc(C(=O)NC)nc3)C4)cc2[nH]c1=O [Compound 36, 5-(6-((7-ethyl-6-oxo-5,6-dihydro-1,5-naphthyridin-3-yl)methyl)-3,6-diazabicyclo [3.1.1]heptan-3-yl)-N-methylpicolinamide] | > 1000 nM | – | – | – | –
22 | CCc1cc2ncc(CN3CC4CCC(C3)N4c3ccc(C(=O)NC)nc3)cc2[nH]c1=O [Compound 39, 5-(3-((7-ethyl-6-oxo-5,6-dihydro-1,5-naphthyridin-3-yl)methyl)-3,8-diazabicyclo [3.2.1]octan-8-yl)-N-methylpicolinamide] | > 1000 nM | – | – | – | –
23 | CCc1cc2ncc(CN3CCC(N(C)c4ccc(C(=O)NC)nc4)CC3)cc2[nH]c1=O [Compound 31, 5-((1-((7-ethyl-6-oxo-5,6-dihydro-1,5-naphthyridin-3-yl)methyl)piperidin-4-yl)(methyl)amino)-N-methylpicolinamide] | > 1000 nM | – | 8.81 | 3.5 ×10⁻⁶ cm/s | 30.9 ×10⁻⁶ cm/s
